Experimental data as given in US11753409B2, “Crystalline salts of a B-RAF kinase inhibitor” (Xynomic Pharmaceuticals, Inc., priority 2017, dated 2023).
Entries after “also recorded” stand apart in the source; their conditions may differ.

Tests used:
Format in all cases: physicochemical
[1] = Heating to 170° C. and cooling to room temperature; settings: heated to 170° C., cooled to room temperature
Method: Further XRPD, TGA, DSC and ^1H NMR analyses were performed after heating succinate Form A to 170° C. and then cooling to room temperature.

[2] = Solid state stability evaluation
Method: Samples of Form A of N-(3-(5-((1-ethylpiperidin-4-yl)(methyl)amino)-3-(pyrimidin-5-yl)-1H-pyrrolo[3,2-b]pyridin-1-yl)-2,4-difluorophenyl)propane-1-sulfonamide monosuccinate salt were stored under at 80° C. for one day, at 25° C. under 60% RH and at 40° C. under 75% RH for one week.

[3] = Equilibrium solubility of Form A in water
Method: Equilibrium solubility of Form A in water was measured at room temperature. The solid was suspended into H2O (˜800 rpm) at rt. After 24 h., the suspension was centrifuged (10000 rpm, 5 min) followed by filtration (0.45 μm PTFE membrane). The supernatant (first few drops were discarded) was analyzed by HPLC and the pH was measured. The residual solid was analyzed by XRPD.

[4] = DVS isotherm of Form A (hygroscopicity)
Method: DVS was measured via a SMS (Surface Measurement Systems) DVS Intrinsic. The relative humidity at 25° C. was calibrated against the deliquescence point of LiCl, Mg(NO3)2 and KCl.
To investigate the solid form stability as a function of humidity, a DVS isotherm plot of Form A of N-(3-(5-((1-ethylpiperidin-4-yl)(methyl)amino)-3-(pyrimidin-5-yl)-1H-pyrrolo[3,2-b]pyridin-1-yl)-2,4-difluorophenyl)propane-1-sulfonamide monosuccinate salt was collected at 25° C. between 0 and 95% RH.

[5] = 25 ° C., 60% RH/1 week (second condition column)
[6] = 25 ° C., 60% RH/1 week (third condition column)

For `CCCS(=O)(=O)Nc1ccc(F)c(-n2cc(-c3cncnc3)c3nc(N(C)C4CCN(CC)CC4)ccc32)c1F.O=C(O)CCC(=O)O` [Monosuccinate Salt, N-(3-(5-((1-Ethylpiperidin-4-yl)(methyl)amino)-3-(pyrimidin-5-yl)-1H-pyrrolo[3,2-b]pyridin-1-yl)-2,4-difluorophenyl)propane-1-sulfonamide monosuccinate salt], the “Crystalline form after heating (XRPD)” value [1] was “still succinate Type A”, the “Form Change” value [2, 5] was “No” and the “Purity (% of Initial)” value [2, 5] was 100.0 % of Initial. The “Form Change” value [2, 6] was “No”, the “Purity (% of Initial)” value [2, 6] was 100.1 % of Initial and the “Form Change” value ([2]; 80% C/1 day) was “No”. The “Purity (% of Initial)” value ([2]; 80% C/1 day) was 99.9 % of Initial, the “Solid state stability, form change or HPLC purity decrease” value ([2]; any of the storage conditions) was “No form change or HPLC purity decrease were observed” and the “Form change during equilibrium solubility testing (XRPD)” value ([3]; rt, 24 h, listed as Form A, monosuccinate salt) was “no form change; also recorded: does not change”. The solubility thermodynamic at 24 h ([3]; thermodynamic from solid, room temperature, HPLC) was 14.3 mg/mL, the “Water uptake (DVS)” value ([4]; 25° C./80% RH) was 0.14% and the Hygroscopicity ([4]; DVS at 25° C., 0 to 95% RH, listed as Form A, monosuccinate salt) was “non-hygroscopic; also recorded: low hygroscopicity”. For the same molecule, the “Form change after DVS testing (XRPD)” value ([4]; listed as Form A, monosuccinate salt) was “did not result in any form change; also recorded: does not change form”.
